Measurements published in patent US7582629B2, “Derivatives of isothiazol-3(2H)-one 1,1-dioxides as liver X receptor modulators” (AstraZeneca AB, priority 2005, dated 2009).

Target: T1, LXRα (Homo sapiens, UniProt Q13133)
T1 construct: human LXRalpha (amino acid 205-447); made in house; host or cells: E. coli
T1 sequence (Q13133 205-447): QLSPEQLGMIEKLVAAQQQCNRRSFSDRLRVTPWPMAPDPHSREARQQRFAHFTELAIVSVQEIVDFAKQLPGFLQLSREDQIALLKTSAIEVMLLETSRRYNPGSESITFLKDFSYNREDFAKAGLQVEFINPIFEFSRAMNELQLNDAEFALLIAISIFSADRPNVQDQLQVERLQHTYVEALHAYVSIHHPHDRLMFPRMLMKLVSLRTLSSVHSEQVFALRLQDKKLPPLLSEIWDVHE
Experiment: Co-activator recruitment assay (LXR-LBD / SRC-1 peptide, time-resolved fluorescence)
Format: biochemical
Details: coactivator recruitment assays
Source text: The Ligand Binding Domain (LBD) of human LXRalpha (amino acid 205-447) and LXRbeta (amino acid 216-461) was produced by recombinant techniques in E. coli. A fragment of the human Steroid Receptor Co-Activator-1 (SRC-1) was produced as a synthetic peptide. An anti-6×His-antibody coupled with Europium (Eu^3+) was used to recognize the His-tag on the LXR-LBD and Allophycocyanin (APC) coupled to streptavidin was used to recognize the biotinylated SRC-1. Agonist binding to LXRalpha or LXRbeta enhances the affinity of LXR towards SRC-1 and thereby brings Eu^3+ and APC in close proximity. Eu^3+ is excited at 337 nm and emitts light at 620 nm. This emission, when in close proximity, excites APC to emit light at 665 nm.
Compounds (10 mM) in DMSO were diluted (⅓) in DMSO in 10 concentrations. […]
The assay mix has the following final concentrations; LXRalpha mix: 0.06 μg/mL Eu-labelled anti-6×His Ab, […] Streptavidin APC, 30 nM SRC-1 peptide and 0.9 μg/mL LXRalpha in buffer and LXRbeta mix; 0.06 μg/mL Eu-labelled anti-6×His Ab, 1.15 μg/1 mL Streptavidin APC, 90 nM SRC-1 peptide and 0.2 μg/mL LXRbeta in buffer. Time-resolved fluorescence readings were done in a Wallac Victor reader at 665 nm followed by reading at 615 nm. […]

## COCCN1C(=O)C(Nc2ccc3oc(C(C)=O)cc3c2)=C(c2ccccc2)S1(=O)=O [Example 13, 4-[(2-Acetyl-1-benzofuran-5-yl)amino]-2-(2-methoxyethyl)-5-phenylisothiazol-3(2H)-one 1,1-dioxide]
  EC50: 270 nM

## O=C1C(Nc2ccc(OC(F)F)cc2)=C(c2ccccc2)S(=O)(=O)N1Cc1ccc(OC(F)F)cc1 [Example 14, 2-[4-(Difluoromethoxy)benzyl]-4-{[4-(difluoromethoxy)phenyl]amino}-5-phenylisothiazol-3(2H)-one 1,1-dioxide]
  EC50: 75 nM
